Reference: patent US20140135319A1, “6-SUBSTITUTED IMIDAZOPYRAZINES FOR USE AS MPS-1 AND TKK INHIBITORS IN THE TREATMENT OF HYPERPROLIFERATIVE DISORDERS” (BAYER INTELLECTUAL PROPERTY GMBH, priority 2010, published 2014)

Each compound was assayed against T1, human kinase Mps-1 (Homo sapiens, UniProt P33981) (assay: Mps-1 kinase assay (TR-FRET)). Conditions: GST-tagged human full length recombinant Mps-1; 10 μM ATP; 1 μM peptide substrate; 60 min at 22° C.
T1 construct: N-terminally GST-tagged human full length recombinant Mps-1 kinase; GST (N); purchased Invitrogen, Karslruhe, Germany PV4071
T1 sequence (P33981 1-857): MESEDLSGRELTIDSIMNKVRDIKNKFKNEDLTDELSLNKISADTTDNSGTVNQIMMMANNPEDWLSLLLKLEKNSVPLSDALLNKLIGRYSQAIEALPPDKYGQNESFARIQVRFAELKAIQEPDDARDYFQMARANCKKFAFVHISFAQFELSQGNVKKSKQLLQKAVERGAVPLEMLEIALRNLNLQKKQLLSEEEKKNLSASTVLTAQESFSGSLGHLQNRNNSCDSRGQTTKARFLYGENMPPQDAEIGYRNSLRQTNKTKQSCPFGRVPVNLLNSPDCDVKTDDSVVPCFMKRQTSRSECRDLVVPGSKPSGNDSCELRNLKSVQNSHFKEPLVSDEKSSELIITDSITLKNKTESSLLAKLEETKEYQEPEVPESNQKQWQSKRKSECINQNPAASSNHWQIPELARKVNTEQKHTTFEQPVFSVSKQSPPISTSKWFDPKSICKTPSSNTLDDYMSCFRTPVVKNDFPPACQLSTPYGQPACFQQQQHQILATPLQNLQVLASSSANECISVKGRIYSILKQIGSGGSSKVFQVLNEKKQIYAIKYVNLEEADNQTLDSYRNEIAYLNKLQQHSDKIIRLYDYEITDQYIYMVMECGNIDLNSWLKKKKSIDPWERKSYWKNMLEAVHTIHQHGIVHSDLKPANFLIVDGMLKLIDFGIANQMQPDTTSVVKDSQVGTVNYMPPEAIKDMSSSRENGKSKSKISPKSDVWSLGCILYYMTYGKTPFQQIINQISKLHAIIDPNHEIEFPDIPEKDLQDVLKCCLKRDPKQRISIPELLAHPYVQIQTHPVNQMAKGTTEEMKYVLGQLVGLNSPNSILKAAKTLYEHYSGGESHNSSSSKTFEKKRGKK
Assay type: biochemical
Procedure: The human kinase Mps-1 phosphorylates a biotinylated substrate peptide. Detection of the phosphorylated product is achieved by time-resolved fluorescence resonance energy transfer (TR-FRET) from Europium-labelled anti-phospho-Serine/Threonine antibody as donor to streptavidin labelled with cross-linked allophycocyanin (SA-XLent) as acceptor. Compounds are tested for their inhibition of the kinase activity.
N-terminally GST-tagged human full length recombinant Mps-1 kinase (purchased from Invitrogen, Karslruhe, Germany, cat. no PV4071) was used. As substrate for the kinase reaction a biotinylated peptide of the amino-acid sequence […] (C-terminus in amide form, purchased from Biosynthan GmbH, Berlin) was used.
The concentration of Mps-1 in the assay was adjusted to the activity of the enzyme lot and was chosen appropriate to have the assay in the linear range, typical enzyme concentrations were in the range of about 1 nM (final conc. in the 5 μl assay volume).
The resulting mixture was incubated 1 h at 22° C. to allow the binding of the phosphorylated peptide to the anti-phospho(Ser/Thr)-Europium-antibody. Subsequently the amount of phosphorylated substrate was evaluated by measurement of the resonance energy transfer from the Europium-labelled anti-phospho(Ser/Thr) antibody to the Streptavidin-XLent. Therefore, the fluorescence emissions at 620 nm and 665 nm after excitation at 350 nm was measured in a Viewlux TR-FRET reader (PerkinElmer LAS, Rodgau-Jügesheim, Germany). The “blank-corrected normalized ratio” (a Viewlux specific readout, similar to the traditional ratio of the emissions at 665 nm and at 622 nm, in which blank and Eu-donor crosstalk are subtracted from the 665 nm signal before the ratio is calculated) was taken as the measure for the amount of phosphorylated substrate.

Row | IC50 [nM] | SMILES
1 | 6.9 | CC(C)CNc1nc(CCC(C)(C)O)cn2c(-c3ccc(C(=O)NC4CC4)cc3)cnc12 [Example 7-1, N-cyclopropyl-4-{6-(3-hydroxy-3-methylbutyl)-8-[(2-methylpropyl)amino]imidazo[1,2-a]pyrazin-3-yl}benzamide]
2 | 3.3 | CC(C)CNc1nc(-c2ccnc3ccccc23)cn2c(-c3ccc(C(=O)NC4CC4)cc3)cnc12 [Example 1-4, N-cyclopropyl-4-{8-[(2-methylpropyl)amino]-6-(quinolin-4-yl)imidazo [1,2-a]pyrazin-3-yl} benzamide]
3 | 10.4 | Cc1cc(-c2cnc3c(NCC4CC4C)nc(-c4ccc(F)cc4)cn23)ccc1C(=O)NC1CC1 (centres unmarked) [Example 6-3, N-cyclopropyl-4-[6-(4-fluorophenyl)-8-{[(2-methylcyclopropyl)methyl]amino}imidazo[1,2-a]pyrazin-3-yl]-2-methylbenzamide]
4 | 12.4 | CC(C)CNc1nc(-c2ccoc2)cn2c(-c3ccc(C(=O)NC4CC4)c(Cl)c3)cnc12 [Example 1-33, 2-chloro-N-cyclopropyl-4-{6-(furan-3-yl)-8-[(2-methylpropyl)amino]imidazo[1,2-a]pyrazin-3-yl}benzamide]
5 | 1 | CC(C)CNc1nc(Oc2ccccc2)cn2c(-c3ccc(C(=O)NC4CC4)cc3)cnc12 [Example 13-1]
6 | 17.6 | O=C(NC1CC1)c1ccc(-c2cnc3c(NCCCN4CCCC4=O)nc(-c4ccncc4)cn23)cc1 [Example 3-8, N-cyclopropyl-4-[8-{[3-(2-oxopyrrolidin-1-yl)propyl]amino}-6-(pyridin-4-yl)imidazo[1,2-a]pyrazin-3-yl]benzamide]
7 | 10.8 | NCC#CCCNc1nc(-c2ccccc2)cn2c(-c3ccc(C(=O)NC4CC4)cc3)cnc12 [Example 4-1, 4-{8-[(5-Aminopent-3-yn-1-yl)amino]-6-phenylimidazo[1,2-a]pyrazin-3-yl}-N-cyclopropylbenzamide]
8 | 4.8 | NC(=O)Cc1cccc(-c2cn3c(-c4ccc(C(=O)NC5CC5)cc4)cnc3c(NCCCO)n2)c1 [Example 1-89, 4-{6-[3-(2-amino-2-oxo-ethyl)phenyl]-8-[(3-hydroxy-propyl)amino]imidazo[1,2-a]pyrazin-3-yl}-N-cyclopropyl-benzamide]
9 | 1.6 | O=C(NC1CC1)c1ccc(-c2cnc3c(NCC(O)C(F)(F)F)nc(-c4ccncc4)cn23)cc1 (centres unmarked) [Example 3-21, N-cyclopropyl-4-{6-(pyridin-4-yl)-8-[(3,3,3-tri-fluoro-2-hydroxypropyl)amino]imidazo[1,2-a]pyrazin-3-yl}benzamide]
10 | 2.1 | O=C(NC1CC1)c1ccc(-c2cnc3c(NCc4ccncc4)nc(-c4ccncc4)cn23)cc1 [Example 3-19, N-cyclopropyl-4-{6-(pyridin-4-yl)-8-[(pyridin-4-ylmethyl)amino]imidazo [1,2-a]pyrazin-3-yl} benzamide]
11 | 5.6 | NCCCCCNc1nc(-c2cccc(CC(N)=O)c2)cn2c(-c3ccc(C(=O)NC4CC4)cc3)cnc12 [Example 1-96, 4-{6-[3-(2-Amino-2-oxo-ethyl)phenyl]-8-[(5-amino-pentyl)amino]imidazo[1,2-a]pyrazin-3-yl}-N-cyclo-propylbenzamide]
12 | 11.4 | CC(C)CNc1nc(C2=CCOCC2)cn2c(-c3ccc(C(=O)NC4CC4)c(Cl)c3)cnc12 [Example 1-35, 2-chloro-N-cyclopropyl-4-{6-(3,6-dihydro-2H-pyran-4-yl)-8-[(2-methyl-propyl)amino]imidazo [1,2-a]pyrazin-3-yl} benzamide]
13 | 214 | O=C(NC1CC1)c1ccc(-c2cnc3c(NCCCN4CCOCC4)nc(-c4ccncc4)cn23)cc1 [Example 3-5, N-cyclopropyl-4-[8-{[3-(morpholin-4-yl)propyl]amino}-6-(pyridin-4-yl)imidazo[1,2-a]pyrazin-3-yl]benzamide]
14 | 18.3 | O=C(NC1CC1)c1ccc(-c2cnc3c(NCC4CCCO4)nc(-c4ccoc4)cn23)cc1F (centres unmarked) [Example 1-62, N-cyclopropyl-2-fluoro-4-{6-(furan-3-yl)-8-[(tetrahydrofuran-2-ylmethyl)amino]imidazo [1,2-a]pyrazin-3-yl} benzamide]
15 | 1.5 | Cc1cc(-c2cn3c(-c4ccc(C(=O)NC5CC5)c(C)c4)cnc3c(NCCC(F)(F)F)n2)ccn1 [Example 1-68, N-cyclopropyl-2-methyl-4-{6-(2-methylpyridin-4-yl)-8-[(3,3,3-trifluoro-propyl)amino]imidazo [1,2-a]pyrazin-3-yl} benzamide]
16 | 19.4 | CC(C)CNc1nc(-c2cncc(C(=O)NC(C)(C)C)c2)cn2c(-c3ccc(C(=O)NC4CC4)cc3)cnc12 [Example 1-24, N-tert-butyl-5-{3-[4-(cyclopropylcarbamoyl)phenyl]-8-[(2-methyl-propyl)amino]imidazo [1,2-a]pyrazin-6-yl} pyridine-3-carboxamide]
17 | 3.9 | N#CCCNc1nc(-c2cccc(CC(N)=O)c2)cn2c(-c3ccc(C(=O)NC4CC4)cc3)cnc12 [Example 1-86, 4-{6-[3-(2-amino-2-oxo-ethyl)phenyl]-8-[(2-cyano-ethyl)amino]imidazo[1,2-a]pyrazin-3-yl}-N-cyclo-propylbenzamide]
18 | 82.9 | Cc1cc(-c2cnc3c(NCCC(F)(F)F)nc(CN)cn23)ccc1C(=O)NC1CC1 [Example 10-1, 4-{6-(aminomethyl)-8-[(3,3,3-trifluoropropyl)amino]imidazo[1,2-a]pyrazin-3-yl}-N-cyclopropyl-2-methylbenzamide]
19 | 8.6 | Cc1cc(-c2cnc3c(NCC4CC4C)nc(C4=CCOCC4)cn23)ccc1C(=O)NC1CC1 (centres unmarked) [Example 6-16, N-cyclopropyl-4-[6-(3,6-dihydro-2H-pyran-4-yl)-8-{[(2-methylcyclo-propyl)methyl]amino}imidazo [1,2-a]pyrazin-3-yl]-2-methylbenzamide]
20 | 4.6 | NC/C=C\CCNc1nc(-c2ccccc2)cn2c(-c3ccc(C(=O)NC4CC4)cc3)cnc12 [Example 4-3, 4-(8-{[(3Z)-5-aminopent-3-en-1-yl]amino}-6-phenylimidazo[1,2-a]pyrazin-3-yl)-N-cyclopropylbenzamide]
21 | 208 | CC(C)CNc1nc(-c2ccccc2)cn2c(-c3ccc(C(=O)NC4(C)CC4)cc3)cnc12 [Example 2-3, N-(1-methylcyclopropyl)-4-{8-[(2-methylpropyl)amino]-6-phenylimidazo [1,2-a]pyrazin-3-yl}benzamide]
22 | 3.9 | CC(C)CNc1nc(C2CCN(C)CC2)cn2c(-c3ccc(C(=O)NC4CC4)cc3)cnc12 [Example 7-6, N-cyclopropyl-4-{6-(1-methylpiperidin-4-yl)-8-[(2-methylpropyl)amino]imidazo[1,2-a]pyrazin-3-yl}benzamide]
23 | < 1 | Cc1cc(-c2cnc3c(NCC(C)(C)O)nc(Sc4ccccc4)cn23)ccc1C(=O)NC1CC1 [Example 15-1, N-cyclopropyl-4-{8-[(2-hydroxy-2-methylpropyl)amino]-6-(phenylsulfanyl)imidazo[1,2-a]pyrazin-3-yl}-2-methylbenzamide]
24 | 4.1 | O=C(NC1CC1)c1ccc(-c2cnc3c(NCc4cccs4)nc(-c4ccncc4)cn23)cc1 [Example 3-1, N-cyclopropyl-4-{6-(pyridin-4-yl)-8-[(thiophen-2-ylmethyl)amino]imidazo[1,2-a]pyrazin-3-yl}benzamide]
25 | 35.7 | CC(C)CNc1nc(-c2ccn[nH]2)cn2c(-c3ccc(C(=O)NC4CC4)c(Cl)c3)cnc12 [Example 1-34, 2-chloro-N-cyclopropyl-4-{8-[(2-methylpropyl)amino]-6-(1H-pyrazol-5-yl)imidazo[1,2-a]pyrazin-3-yl}benzamide]
26 | 5.1 | O=C(NC1CC1)c1ccc(-c2cnc3c(NCCCOCC4COCO4)nc(-c4ccccc4)cn23)cc1 (centres unmarked) [Example 3-42, N-cyclopropyl-4-(8-{[3-(1,3-dioxolan-4-ylmethoxy)propyl]amino}-6-phenylimidazo[1,2-a]pyrazln-3-yl)benzamide]
